Experimental data published in ChEMBL document CHEMBL1133420, “Parallel synthesis of a series of subtype-selective NMDA receptor antagonists” (Bioorg Med Chem Lett, 2000).

What was measured:
Format in all cases: functional, cell-based, Oocyte
[1] = target: Glutamate receptor ionotropic, NMDA 2A (Homo sapiens, UniProt Q05586+Q12879); assay: Antagonistic activity against NR1A/2A receptors in frog oocytes
[2] = target: Glutamate receptor ionotropic, NMDA 2B (Homo sapiens, UniProt Q05586+Q13224); assay: Antagonistic activity against NR1A/2B receptor in frog oocytes
Glutamate receptor ionotropic, NMDA 2B, sequence (Q13224 whole entry, one chain of several): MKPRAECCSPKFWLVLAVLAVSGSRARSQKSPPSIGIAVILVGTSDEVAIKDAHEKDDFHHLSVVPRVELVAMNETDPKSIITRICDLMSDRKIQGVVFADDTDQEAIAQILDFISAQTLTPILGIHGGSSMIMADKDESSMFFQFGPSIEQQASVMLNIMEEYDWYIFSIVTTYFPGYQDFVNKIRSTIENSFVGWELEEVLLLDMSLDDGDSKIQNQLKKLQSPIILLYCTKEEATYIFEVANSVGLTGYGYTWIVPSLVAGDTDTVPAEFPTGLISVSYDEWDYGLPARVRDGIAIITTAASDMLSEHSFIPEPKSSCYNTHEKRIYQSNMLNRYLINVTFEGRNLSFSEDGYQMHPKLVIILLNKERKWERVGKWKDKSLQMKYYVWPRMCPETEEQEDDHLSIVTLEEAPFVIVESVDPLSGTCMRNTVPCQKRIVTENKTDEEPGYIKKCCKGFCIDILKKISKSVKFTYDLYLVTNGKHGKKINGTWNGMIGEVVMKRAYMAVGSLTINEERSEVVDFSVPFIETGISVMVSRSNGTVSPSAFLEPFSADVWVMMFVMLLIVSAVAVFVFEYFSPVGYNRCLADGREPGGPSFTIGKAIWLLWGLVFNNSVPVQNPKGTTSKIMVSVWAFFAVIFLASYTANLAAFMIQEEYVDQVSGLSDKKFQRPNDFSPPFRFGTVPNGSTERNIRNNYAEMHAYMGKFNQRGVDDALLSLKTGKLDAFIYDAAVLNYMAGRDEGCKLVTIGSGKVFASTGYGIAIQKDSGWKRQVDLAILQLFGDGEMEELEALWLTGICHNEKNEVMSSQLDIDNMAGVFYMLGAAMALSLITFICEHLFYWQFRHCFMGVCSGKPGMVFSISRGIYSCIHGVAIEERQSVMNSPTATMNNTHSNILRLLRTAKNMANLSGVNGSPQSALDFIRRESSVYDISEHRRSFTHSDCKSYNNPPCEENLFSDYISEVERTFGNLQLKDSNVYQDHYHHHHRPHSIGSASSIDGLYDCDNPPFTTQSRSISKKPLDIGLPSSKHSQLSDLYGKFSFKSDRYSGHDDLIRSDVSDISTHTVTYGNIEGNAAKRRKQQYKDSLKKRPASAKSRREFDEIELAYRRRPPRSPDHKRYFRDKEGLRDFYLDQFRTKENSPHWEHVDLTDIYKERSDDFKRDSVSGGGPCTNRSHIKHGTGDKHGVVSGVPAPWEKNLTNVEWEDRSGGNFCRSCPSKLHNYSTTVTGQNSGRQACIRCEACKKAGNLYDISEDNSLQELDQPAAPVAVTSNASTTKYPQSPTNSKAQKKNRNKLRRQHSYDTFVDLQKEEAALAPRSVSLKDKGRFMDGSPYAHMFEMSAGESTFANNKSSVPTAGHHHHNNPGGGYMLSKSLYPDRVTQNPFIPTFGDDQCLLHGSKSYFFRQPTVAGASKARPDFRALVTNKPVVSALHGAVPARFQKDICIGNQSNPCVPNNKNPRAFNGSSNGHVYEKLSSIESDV

[3] = target: Glutamate receptor ionotropic, NMDA 2C (Homo sapiens, UniProt Q05586+Q14957); assay: Antagonistic activity against NR1A/2C receptor in frog oocytes
Glutamate receptor ionotropic, NMDA 2C, sequence (Q14957 whole entry, one chain of several): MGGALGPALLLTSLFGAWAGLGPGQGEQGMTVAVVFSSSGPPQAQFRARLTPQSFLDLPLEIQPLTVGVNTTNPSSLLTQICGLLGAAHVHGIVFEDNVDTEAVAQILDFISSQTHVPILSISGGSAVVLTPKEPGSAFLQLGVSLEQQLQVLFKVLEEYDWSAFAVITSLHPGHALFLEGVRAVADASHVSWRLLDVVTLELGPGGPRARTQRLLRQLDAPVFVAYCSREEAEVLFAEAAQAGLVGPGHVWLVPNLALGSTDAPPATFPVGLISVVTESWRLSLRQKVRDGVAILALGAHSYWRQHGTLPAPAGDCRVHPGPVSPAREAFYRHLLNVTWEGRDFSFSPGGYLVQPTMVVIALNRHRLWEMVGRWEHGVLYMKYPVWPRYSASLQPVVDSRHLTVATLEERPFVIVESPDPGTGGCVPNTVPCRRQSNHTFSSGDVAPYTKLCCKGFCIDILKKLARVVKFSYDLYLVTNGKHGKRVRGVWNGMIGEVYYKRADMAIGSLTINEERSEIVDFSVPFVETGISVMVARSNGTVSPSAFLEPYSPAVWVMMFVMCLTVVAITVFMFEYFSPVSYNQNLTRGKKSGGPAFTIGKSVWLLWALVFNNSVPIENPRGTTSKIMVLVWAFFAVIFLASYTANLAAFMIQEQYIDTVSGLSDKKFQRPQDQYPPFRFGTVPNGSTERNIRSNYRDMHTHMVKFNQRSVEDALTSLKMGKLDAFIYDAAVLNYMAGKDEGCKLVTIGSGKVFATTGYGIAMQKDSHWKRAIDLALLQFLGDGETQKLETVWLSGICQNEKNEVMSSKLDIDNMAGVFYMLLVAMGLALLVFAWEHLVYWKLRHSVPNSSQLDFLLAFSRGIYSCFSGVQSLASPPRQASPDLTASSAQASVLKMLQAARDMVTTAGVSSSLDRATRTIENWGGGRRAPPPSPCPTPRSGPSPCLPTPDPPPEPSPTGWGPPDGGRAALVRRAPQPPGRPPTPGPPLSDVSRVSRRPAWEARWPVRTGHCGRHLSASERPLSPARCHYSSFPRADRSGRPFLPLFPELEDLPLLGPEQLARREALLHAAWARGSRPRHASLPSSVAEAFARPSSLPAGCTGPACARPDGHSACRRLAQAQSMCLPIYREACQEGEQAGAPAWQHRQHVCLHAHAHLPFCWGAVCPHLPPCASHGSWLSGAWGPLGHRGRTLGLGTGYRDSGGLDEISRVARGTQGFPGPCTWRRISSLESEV

Glutamate receptor ionotropic, NMDA 2A, sequence (Q12879 whole entry, one chain of several): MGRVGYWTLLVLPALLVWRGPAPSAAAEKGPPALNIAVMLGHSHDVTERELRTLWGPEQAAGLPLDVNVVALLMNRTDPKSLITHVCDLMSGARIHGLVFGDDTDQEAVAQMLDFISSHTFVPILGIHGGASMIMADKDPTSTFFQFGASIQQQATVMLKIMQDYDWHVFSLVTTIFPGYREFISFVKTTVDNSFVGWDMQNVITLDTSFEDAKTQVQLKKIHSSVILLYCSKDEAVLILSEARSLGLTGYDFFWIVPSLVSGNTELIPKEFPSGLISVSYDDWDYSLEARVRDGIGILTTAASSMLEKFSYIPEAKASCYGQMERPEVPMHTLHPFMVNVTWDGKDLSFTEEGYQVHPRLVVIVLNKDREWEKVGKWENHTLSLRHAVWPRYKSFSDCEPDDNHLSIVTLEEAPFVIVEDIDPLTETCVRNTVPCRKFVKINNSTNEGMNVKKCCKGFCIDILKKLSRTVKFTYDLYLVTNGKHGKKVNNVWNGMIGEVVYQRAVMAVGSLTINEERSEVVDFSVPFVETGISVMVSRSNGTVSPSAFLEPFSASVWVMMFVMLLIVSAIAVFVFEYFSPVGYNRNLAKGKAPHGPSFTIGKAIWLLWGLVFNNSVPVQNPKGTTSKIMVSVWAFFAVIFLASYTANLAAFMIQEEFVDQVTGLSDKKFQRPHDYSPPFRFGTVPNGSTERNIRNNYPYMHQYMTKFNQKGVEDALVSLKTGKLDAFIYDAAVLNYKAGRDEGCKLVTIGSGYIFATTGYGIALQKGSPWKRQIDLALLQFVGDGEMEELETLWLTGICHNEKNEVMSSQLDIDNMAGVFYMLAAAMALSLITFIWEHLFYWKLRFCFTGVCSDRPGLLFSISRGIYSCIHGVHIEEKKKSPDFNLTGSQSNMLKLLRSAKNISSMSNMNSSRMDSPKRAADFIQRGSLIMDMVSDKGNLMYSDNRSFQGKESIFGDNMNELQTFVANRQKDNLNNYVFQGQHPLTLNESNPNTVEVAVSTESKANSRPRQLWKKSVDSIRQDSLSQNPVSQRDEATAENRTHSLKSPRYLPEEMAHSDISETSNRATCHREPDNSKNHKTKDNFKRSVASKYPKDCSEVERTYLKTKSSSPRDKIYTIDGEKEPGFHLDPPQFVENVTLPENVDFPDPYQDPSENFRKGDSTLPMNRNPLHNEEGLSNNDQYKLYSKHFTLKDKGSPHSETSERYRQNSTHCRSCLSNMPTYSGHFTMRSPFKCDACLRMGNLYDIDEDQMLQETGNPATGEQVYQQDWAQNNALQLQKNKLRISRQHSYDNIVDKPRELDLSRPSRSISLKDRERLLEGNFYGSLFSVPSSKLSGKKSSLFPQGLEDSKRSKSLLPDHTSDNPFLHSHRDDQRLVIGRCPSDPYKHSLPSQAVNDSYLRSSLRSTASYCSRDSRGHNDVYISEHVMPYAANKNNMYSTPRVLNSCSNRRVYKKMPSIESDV

Structure (SMILES)	IC50 [1] [µM]	IC50 [2] [µM]	IC50 [3] [µM]
Cc1n[nH]c(SCCN2CCC(Cc3ccccc3)CC2)n1	> 100	0.15	> 100
Nc1nnc(SCCCN2CCC(Cc3ccccc3)CC2)s1	73	0.56	> 100
Oc1ccc(SCCN2CCC(Cc3ccccc3)CC2)cc1	35	0.1	> 100
c1ccc(CC2CCN(CCCSc3nc4ccccc4[nH]3)CC2)cc1	64	1	51
Cc1nnc(SCCN2CCC(Cc3ccccc3)CC2)s1	> 100	4.8	> 100
Nc1nnc(SCCN2CCC(Cc3ccccc3)CC2)s1	> 100	0.21	> 100
Cc1n[nH]c(SCCCN2CCC(Cc3ccccc3)CC2)n1	> 100	1	> 100
Nc1nnc(SCCN2CCC(Cc3ccccc3)CC2)[nH]1	> 100	0.035	> 100
c1ccc(CC2CCN(CCCSc3ncc[nH]3)CC2)cc1	77	0.61	> 100
c1ccc(CC2CCN(CCSc3ccccc3)CC2)cc1	> 100	0.93	> 100
c1ccc(CC2CCN(CCCSc3nnc[nH]3)CC2)cc1	51	0.63	> 100
c1ccc(CC2CCN(CCSc3nc4ncccc4[nH]3)CC2)cc1	> 100	0.24	> 100
c1ccc(CC2CCN(CCCSc3nc4ncccc4[nH]3)CC2)cc1	> 100	1.6	> 100
c1ccc(CC2CCN(CCCSc3ccccc3)CC2)cc1	–	4.3	> 100
Nc1n[nH]c(SCCCN2CCC(Cc3ccccc3)CC2)n1	77	0.63	> 100
Oc1ccc(C#CCCN2CCC(Cc3ccccc3)CC2)cc1	> 100	0.1	> 100
Cc1nnc(SCCCN2CCC(Cc3ccccc3)CC2)s1	> 100	6.4	> 100
c1ccc(CC2CCN(CCSc3nc[nH]n3)CC2)cc1	> 100	0.13	> 100
c1ccc(CC2CCN(CCSc3ncc[nH]3)CC2)cc1	> 100	0.07	> 100
O=[N+]([O-])c1ccc2nc(SCCCN3CCC(Cc4ccccc4)CC3)[nH]c2c1	61	0.91	> 100
c1ccc(CC2CCN(CCSc3nc4ccccc4[nH]3)CC2)cc1	–	0.38	> 100
O=[N+]([O-])c1ccc2[nH]c(SCCN3CCC(Cc4ccccc4)CC3)nc2c1	> 100	7.4	> 100
